Usually Kd stands for the concentration at which binding is half-saturated. High values mean a looser complex, low ones a tighter complex.

In the test the target is T1, BDDrFVIII (Homo sapiens, UniProt P00451).
T1 construct: Deletion of the B domain leads to a less heterogenic, genetically engineered rFVIII that corresponds to the shortest form of pdFVIII (e.g. ˜170 KDa)
T1 sequence (P00451 with tags, fused parts or gaps DEL765-1658): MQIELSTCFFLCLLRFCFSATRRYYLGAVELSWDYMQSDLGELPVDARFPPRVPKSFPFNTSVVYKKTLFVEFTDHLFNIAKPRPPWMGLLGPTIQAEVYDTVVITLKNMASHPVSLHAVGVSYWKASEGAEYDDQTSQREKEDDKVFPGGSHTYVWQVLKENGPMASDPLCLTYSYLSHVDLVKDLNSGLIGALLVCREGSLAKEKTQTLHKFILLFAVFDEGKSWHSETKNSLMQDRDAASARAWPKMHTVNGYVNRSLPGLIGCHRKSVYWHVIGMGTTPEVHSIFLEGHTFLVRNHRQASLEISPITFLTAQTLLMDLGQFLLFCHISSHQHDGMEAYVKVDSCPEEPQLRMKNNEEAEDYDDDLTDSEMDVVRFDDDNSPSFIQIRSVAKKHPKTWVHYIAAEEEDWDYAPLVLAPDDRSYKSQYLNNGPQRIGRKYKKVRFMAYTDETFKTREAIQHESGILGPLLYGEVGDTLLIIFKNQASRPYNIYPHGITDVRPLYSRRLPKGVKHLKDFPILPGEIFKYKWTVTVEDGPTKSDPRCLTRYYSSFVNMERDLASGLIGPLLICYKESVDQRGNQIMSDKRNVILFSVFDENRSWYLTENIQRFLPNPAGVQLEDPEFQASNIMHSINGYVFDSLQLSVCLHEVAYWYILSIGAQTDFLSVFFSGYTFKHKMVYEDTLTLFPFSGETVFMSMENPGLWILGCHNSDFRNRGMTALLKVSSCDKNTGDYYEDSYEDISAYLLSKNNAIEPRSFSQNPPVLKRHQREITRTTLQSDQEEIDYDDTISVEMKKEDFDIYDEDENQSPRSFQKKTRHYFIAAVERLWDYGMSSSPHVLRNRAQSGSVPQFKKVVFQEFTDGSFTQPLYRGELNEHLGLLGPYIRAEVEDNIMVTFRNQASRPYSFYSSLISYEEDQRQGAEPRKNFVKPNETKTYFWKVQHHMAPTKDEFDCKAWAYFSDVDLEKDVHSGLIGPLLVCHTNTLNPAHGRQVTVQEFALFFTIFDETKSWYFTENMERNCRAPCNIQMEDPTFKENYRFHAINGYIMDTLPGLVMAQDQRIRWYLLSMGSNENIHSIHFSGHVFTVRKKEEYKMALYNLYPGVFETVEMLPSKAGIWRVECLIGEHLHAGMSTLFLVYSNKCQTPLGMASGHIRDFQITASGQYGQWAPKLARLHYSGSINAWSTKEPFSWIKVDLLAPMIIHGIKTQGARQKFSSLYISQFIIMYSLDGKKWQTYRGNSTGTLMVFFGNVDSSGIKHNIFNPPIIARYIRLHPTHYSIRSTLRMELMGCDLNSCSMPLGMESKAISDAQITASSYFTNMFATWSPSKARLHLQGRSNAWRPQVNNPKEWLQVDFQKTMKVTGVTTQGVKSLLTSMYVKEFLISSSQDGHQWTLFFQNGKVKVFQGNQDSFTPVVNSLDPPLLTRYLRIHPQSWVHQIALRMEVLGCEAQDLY
Put plainly: Dissociation constant of lipid head group - BDDrFVIII interaction by intrinsic fluorescence. Format: binding. The following applies: excitation 285 nm, emission 330 nm, protein 3 ug/mL. On the procedure: This examples describes the preparation of PS containing liposomes that were used for comparison with the PI containing lipidic structures in other Examples. BDDrFVIII was mixed with solution containing different concentration of O-phospho-L-serine (OPLS) or phosphocholine in such a way that the final protein concentration is maintained constant at 3 ug/mL. The OPLS or phosphocholine concentration vared between 0 and 100 uM. Each mixture is incubated for 5 minutes before subjecting to further analysis.
The intrinsic fluorescent of BDDrFVIII in the presence of increasing concentration of phospholipids head group was measured with a Quanta Master PTI instrument. The excitation was set to 285 nm and the emission was recorded at peak maximum (e.g. 330 nm). The normalized fluorescence (F/F0) data was plotted vs. [lipid] and used for the determination of the dissociation constant for lipid head group—BDDrFVIII interaction.

Each structure is given as a SMILES string.

`C[N+](C)(C)CCOP(=O)([O-])O` [phophocholine, phosphocholine] gave a Kd of 24.2 µM.
In the case of `N[C@@H](COP(=O)(O)O)C(=O)O` [OPLS, O-phospho-L-serine], the equilibrium dissociation constant (Kd) worked out at 70.2 µM.
